# Test system: HEK-293, SH-SY5Y, primary human keratinocytes, THP-1 differentiated with PMA
# Assay: Transcriptomics (microarray) after anatabine treatment of 4 cell systems
# Format: cell-based
# Settings: for Fold Change TXNRD1: gene TXNRD1; for Fold Change ZBTB21: gene ZBTB21; for Fold Change ZFAND2A: gene ZFAND2A
# Method: To investigate the signalling pathways triggered by anatabine, 4 cell systems (HEK-293, SH-SY5Y, primary human keratinocytes, THP-1 differentiated with PMA) were treated with 4 concentrations of anatabine (100, 200, 300, 400 μM) for 6 hours, after which transcriptomics measurements were performed.
# HEK-293 is a human embryonic kidney cell line devoid of nicotinic receptors. It can be relatively easily transfected and therefore used as a tool to express various subtypes of nicotinic receptors or reporter genes such as NRF2-driven luciferase, which were also used in this study. HEK-293 were seeded in a cell culture medium consisting of EMEM, 10% FBS, 1% NEAA, 1% Sodium Pyruvate and 1% PenStrep. 60,000 cells were seeded per well of a 96-well plate.
# SH-SY5Y is a human bone marrow neuroblastoma cell line that has been used by researchers to investigate the potential anti-inflammatory effect of anatabine. SH-SY5Y were seeded in a cell culture medium consisting of 50% EMEM and 50% Ham's F12 nutrient and including 10% FBS, 1% PenStrep and 1% L-glutamine. 15,000 cells were seeded per well of a 96-well plate.
# Primary human keratinocytes have been included as a relevant cell system for skin. The batch of keratinocytes was selected in order to have healthy, non-smoker, 20-60 years old, Caucasian donors. The keratinocytes were seeded in a cell culture medium consisting of KGM-Gold Keratinocyte Growth Medium. 17,500 cells were seeded per well of a 96-well plate.
# The human leukaemia-derived monocytic cell line THP-1, is the most widely used in vitro model for primary human macrophage investigations. THP-1 cells were seeded in a cell culture medium consisting of RPMI, 10% FBS and 1% PenStrep and in the presence of 40 ng/ml phorbol 12-myristate 13-acetate (PMA). 100,000 cells were seeded per well of a 96-well plate, having a total volume of […] per well. 48 hours later the medium was changed to the same culture medium but without PMA, and the culture was left to rest for 24 h before treatment.
# All four cell systems were seeded in 96 well plates at a total volume of 190 μl per well to allow for a 20× compound stimulation with a volume of 10 μL. 24 hours after seeding—or in the case of THP-1, 24 h after changing to non-PMA medium—four cell systems were stimulated with anatabine (prepared at 20× the corresponding target concentration) to obtain a final molar concentration of 100, 200, 300, 400 μM anatabine.
# In order to generate the transcriptomics data, the four cell systems were exposed to various concentrations of anatabine (100, 200, 300, 400 μM) for 6 hours. The transcriptome of the cells was analysed by a microarray-based analysis.
# The cells were lysed using RLT BUFFER (Qiagen Hilden, Germany) for all cell types except the keratinocytes which were lysed with QIAZOL LYSIS REAGENT (Qiagen). RNA isolation was performed with RNEASY MICRO KIT (Qiagen). RNA quantification was assessed with a NANODROP 1000 (ThermoFisher Waltham, MA, USA) and quality of the total RNA was verified acquiring a profile with a 2100 BIOANALYZER (Agilent Technologies, Santa Clara, CA, USA), requiring an RIN number greater than 6.0. 50 ng of total RNA were processed as described in the TECAN/NUGEN OVATION RNA AMPLIFICATION SYSTEM V2 (Tecan Mannedorf, Switzerland). Human Genome U133 Plus 2.0 array were used for hybridization on a THERMOFISHER OVEN 645, washed on THERMOFISHER GENECHIP™ FLUIDICS STATIONS 450DX (protocol FS450-0004) and scanned on a THERMOFISHER GENECHIP™ SCANNER 3000 7G.
# Quality control check of all chips was done with the BIOCONDUCTOR affyPLM R package version 1.64. Following quality control procedures, differential gene expression analysis was performed using the BIOCONDUCTOR LIMMA R package version 3.44.3. Pairwise comparisons at the gene level, called systems response profiles (SRP), were computed by comparing each concentration-treatment with its respective vehicle control. […]
# [1] = cell system THP1, anatabine 200 μM
# [2] = cell system THP1, anatabine 300 μM
# [3] = cell system THP1, anatabine 400 μM
# [4] = cell system HEK293, anatabine 100 μM
# [5] = cell system HEK293, anatabine 200 μM
# [6] = cell system HEK293, anatabine 300 μM
# [7] = cell system HEK293, anatabine 400 μM
# [8] = cell system KEAT, anatabine 100 μM
# [9] = cell system KEAT, anatabine 200 μM
# [10] = cell system KEAT, anatabine 300 μM
# [11] = cell system KEAT, anatabine 400 μM
# [12] = cell system SHSY5Y, anatabine 100 μM
# [13] = cell system SHSY5Y, anatabine 200 μM
# [14] = cell system SHSY5Y, anatabine 300 μM
# [15] = cell system SHSY5Y, anatabine 400 μM
# [16] = cell system THP1, anatabine 100 μM
smiles,measurement,setting,value
"C1=CCC(c2cccnc2)NC1 (racemic) [anatabine, 1,2,3,6-Tetrahydro-2,3′-bipyridine]",Fold Change,"G0S2 gene, SHSY5Y, anatabine 200 μM",−0.07408
same,Fold Change,"G0S2 gene, SHSY5Y, anatabine 300 μM",−0.1621
same,Fold Change,"G0S2 gene, SHSY5Y, anatabine 400 μM",−0.6623
same,Fold Change,"G0S2 gene, THP1, anatabine 100 μM",−0.1613
same,Fold Change,"G0S2 gene, THP1, anatabine 200 μM",−0.07473
same,Fold Change,"G0S2 gene, THP1, anatabine 300 μM",−0.2674
same,Fold Change,"G0S2 gene, THP1, anatabine 400 μM",−0.3675
same,Fold Change,"GCLM gene, HEK293, anatabine 100 μM",0.1086
same,Fold Change,"GCLM gene, HEK293, anatabine 200 μM",0.5976
same,Fold Change,"GCLM gene, HEK293, anatabine 300 μM",0.7652
same,Fold Change,"GCLM gene, HEK293, anatabine 400 μM",1.165
same,Fold Change,"GCLM gene, KEAT, anatabine 100 μM",0.5698
same,Fold Change,"GCLM gene, KEAT, anatabine 200 μM",0.8549
same,Fold Change,"GCLM gene, KEAT, anatabine 300 μM",1.582
same,Fold Change,"GCLM gene, KEAT, anatabine 400 μM",1.567
same,Fold Change,"GCLM gene, SHSY5Y, anatabine 100 μM",0.3907
same,Fold Change,"GCLM gene, SHSY5Y, anatabine 200 μM",0.7053
same,Fold Change,"GCLM gene, SHSY5Y, anatabine 300 μM",1.629
same,Fold Change,"GCLM gene, SHSY5Y, anatabine 400 μM",2.292
same,Fold Change,"GCLM gene, THP1, anatabine 100 μM",0.2992
same,Fold Change,"GCLM gene, THP1, anatabine 200 μM",0.7816
same,Fold Change,"GCLM gene, THP1, anatabine 300 μM",1.645
same,Fold Change,"GCLM gene, THP1, anatabine 400 μM",2.36
same,Fold Change,"HMOX1 gene, HEK293, anatabine 100 μM",0.7745
same,Fold Change,"HMOX1 gene, HEK293, anatabine 200 μM",1.877
same,Fold Change,"HMOX1 gene, HEK293, anatabine 300 μM",2.27
same,Fold Change,"HMOX1 gene, HEK293, anatabine 400 μM",3.142
same,Fold Change,"HMOX1 gene, KEAT, anatabine 100 μM",3.914
same,Fold Change,"HMOX1 gene, KEAT, anatabine 200 μM",4.283
same,Fold Change,"HMOX1 gene, KEAT, anatabine 300 μM",5.733
same,Fold Change,"HMOX1 gene, KEAT, anatabine 400 μM",5.633
same,Fold Change,"HMOX1 gene, SHSY5Y, anatabine 100 μM",0.8699
same,"NRF2 target genes (HMOX1, GCLM, NQO1, TXNRD1) mRNA","four cell lines, 100, 200, 300, 400 μM for 6 hours",dose-dependent increase
same,Fold Change TXNRD1,[1],0.4137
same,Fold Change TXNRD1,[2],0.8364
same,Fold Change TXNRD1,[3],1.246
same,Fold Change ZBTB21,[4],0.1286
same,Fold Change ZBTB21,[5],0.3704
same,Fold Change ZBTB21,[6],0.3353
same,Fold Change ZBTB21,[7],0.6783
same,Fold Change ZBTB21,[8],0.4558
same,Fold Change ZBTB21,[9],0.5643
same,Fold Change ZBTB21,[10],0.9994
same,Fold Change ZBTB21,[11],0.8602
same,Fold Change ZBTB21,[12],0.1782
same,Fold Change ZBTB21,[13],0.5134
same,Fold Change ZBTB21,[14],0.6287
same,Fold Change ZBTB21,[15],0.9685
same,Fold Change ZBTB21,[16],−0.01334
same,Fold Change ZBTB21,[1],0.2576
same,Fold Change ZBTB21,[2],0.3746
same,Fold Change ZBTB21,[3],0.5865
same,Fold Change ZFAND2A,[4],0.1376
same,Fold Change ZFAND2A,[5],0.3375
same,Fold Change ZFAND2A,[6],0.4979
same,Fold Change ZFAND2A,[7],0.7014
same,Fold Change ZFAND2A,[8],0.2592
same,Fold Change ZFAND2A,[9],0.4658
same,Fold Change ZFAND2A,[10],3.354
same,Fold Change ZFAND2A,[11],1.766
same,Fold Change ZFAND2A,[12],0.09166
same,Fold Change ZFAND2A,[13],0.3919
same,Fold Change ZFAND2A,[14],0.5328
same,Fold Change ZFAND2A,[15],1.066
same,Fold Change ZFAND2A,[16],0.1252
same,Fold Change ZFAND2A,[1],0.2497
same,Fold Change ZFAND2A,[2],0.5677
same,Fold Change ZFAND2A,[3],1.236
